According to patent US20080311589A1, “METHOD OF HIGH-THROUGHPUT SCREENING OF MOLECULES AND COMPOUNDS FOR THEIR EFFECTS ON BIOLOGICAL AND CHEMICAL PROCESSES” (priority 1999, published 2008):

System: 6F mink lung epithelial cells
Test: anti-BrdU cytoblot for suppressors of rapamycin
Format: cell-based
From the text: FIG. 9. […] A 4 mm scale bar is shown. […] A 4 mm scale bar is shown.

| SMILES | excess of FK506 that suppresses the antiproliferative effect of rapamycin (rapamycin and FK506 together 16 hours, then with BrdU 16 hours) | concentration that prevents BrdU incorporation (6F mink lung cells) [nM] |
| --- | --- | --- |
| C=CC[C@@H]1/C=C(\C)C[C@H](C)C[C@H](OC)[C@H]2O[C@@](O)(C(=O)C(=O)N3CCCC[C@H]3C(=O)O[C@H](/C(C)=C/[C@@H]3CC[C@@H](O)[C@H](OC)C3)[C@H](C)[C@@H](O)CC1=O)[C@H](C)C[C@@H]2OC [FK506] | 30-100 fold |  |
| CO[C@H]1C[C@@H]2CC[C@@H](C)[C@@](O)(O2)C(=O)C(=O)N2CCCC[C@H]2C(=O)O[C@H]([C@H](C)C[C@@H]2CC[C@@H](O)[C@H](OC)C2)CC(=O)[C@H](C)/C=C(\C)[C@@H](O)[C@@H](OC)C(=O)[C@H](C)C[C@H](C)/C=C/C=C/C=C/1C [rapamycin] |  | 20 |
